Source: the NIST ThermoML archive (doi:10.1021/je025657+)
Values joined by “and” are separate entries in the source; they are usually repeats but may differ in a detail not shown here. Equal entries are not always repeated.

Conditions: for vapor or sublimation pressure: Closed cell (Static) method

COC(F)(F)F [trifluoromethoxymethane]
Conditions | mass density [kg/m3]
290 K, 4029.3 kPa, Liquid | 1136.09
290 K, 4505 kPa, Liquid | 1138.14
290 K, 4999.6 kPa, Liquid | 1140.25
290 K, 5546.1 kPa, Liquid | 1142.55
290 K, 6046.4 kPa, Liquid | 1144.61
290 K, 6496.3 kPa, Liquid | 1146.42
290 K, 6981.5 kPa, Liquid | 1148.28
300 K, 31.3 kPa, Gas | 1.25
300 K, 46.2 kPa, Gas | 1.89
300 K, 68 kPa, Gas | 2.77
300 K, 100.1 kPa, Gas | 4.12
300 K, 146.6 kPa, Gas | 6.12
300 K, 214 kPa, Gas | 9.08
300 K, 306.3 kPa, Gas | 13.34
300 K, 439.5 kPa, Gas | 19.94
300 K, 589.3 kPa, Gas | 28.11
300 K, 617 kPa, Liquid | 1086.54
300 K, 658.2 kPa, Liquid | 1086.45
300 K, 913.6 kPa, Liquid | 1088.34
300 K, 1058.4 kPa, Liquid | 1088.91
300 K, 1466.6 kPa, Liquid | 1091.63
300 K, 1522.9 kPa, Liquid | 1091.63
300 K, 1998.6 kPa, Liquid | 1094.68
300 K, 2016.1 kPa, Liquid | 1094.48
300 K, 2526.4 kPa, Liquid | 1097.64
300 K, 2545.5 kPa, Liquid | 1097.41
300 K, 3023.5 kPa, Liquid | 1100.35
300 K, 3063.2 kPa, Liquid | 1100.24
300 K, 3486.7 kPa, Liquid | 1102.83
300 K, 3535.6 kPa, Liquid | 1102.72
300 K, 4015.2 kPa, Liquid | 1105.57
300 K, 4063.9 kPa, Liquid | 1105.45
300 K, 4499.8 kPa, Liquid | 1108.05
300 K, 4569.3 kPa, Liquid | 1107.99
300 K, 5014.6 kPa, Liquid | 1110.58
300 K, 5140.6 kPa, Liquid | 1110.81
300 K, 5517 kPa, Liquid | 1113.05
300 K, 5669.7 kPa, Liquid | 1113.35
300 K, 6023 kPa, Liquid | 1115.44
300 K, 6155.2 kPa, Liquid | 1115.66
300 K, 6499 kPa, Liquid | 1117.65
300 K, 6683.2 kPa, Liquid | 1118.07
300 K, 6960.3 kPa, Liquid | 1119.71
300 K, 7091.7 kPa, Liquid | 1119.94
310 K, 38.3 kPa, Gas | 1.49
310 K, 56.5 kPa, Gas | 2.22
310 K, 83.1 kPa, Gas | 3.29
310 K, 121.9 kPa, Gas | 4.87
310 K, 178.2 kPa, Gas | 7.22
310 K, 258.9 kPa, Gas | 10.69
310 K, 372.5 kPa, Gas | 15.8
310 K, 528.4 kPa, Gas | 23.4
310 K, 742.6 kPa, Gas | 35.17
310 K, 813.1 kPa, Liquid | 1051.26
310 K, 836.7 kPa, Liquid | 1051.44
310 K, 861.7 kPa, Liquid | 1051.63
310 K, 1006.3 kPa, Liquid | 1053.19
310 K, 1033.6 kPa, Liquid | 1052.9
310 K, 1512.4 kPa, Liquid | 1056.88
310 K, 1533.9 kPa, Liquid | 1056.54
310 K, 2000.5 kPa, Liquid | 1060.31
310 K, 2046.2 kPa, Liquid | 1060.13
310 K, 2498.6 kPa, Liquid | 1063.7
310 K, 2539.9 kPa, Liquid | 1063.48
310 K, 3027.3 kPa, Liquid | 1067.18
310 K, 3099.5 kPa, Liquid | 1067.15
310 K, 3517 kPa, Liquid | 1070.31
310 K, 3564.5 kPa, Liquid | 1070.1
310 K, 4017.7 kPa, Liquid | 1073.4
310 K, 4131.5 kPa, Liquid | 1073.59
310 K, 4531.7 kPa, Liquid | 1076.5
310 K, 5049.8 kPa, Liquid | 1079.54
310 K, 5149.7 kPa, Liquid | 1079.59
310 K, 5542 kPa, Liquid | 1082.34
310 K, 5630.8 kPa, Liquid | 1082.31
310 K, 6021.1 kPa, Liquid | 1085.02
310 K, 6210.4 kPa, Liquid | 1085.5
310 K, 6538.6 kPa, Liquid | 1087.83
310 K, 6998 kPa, Liquid | 1090.22
310 K, 7191.1 kPa, Liquid | 1090.69
320 K, 46.4 kPa, Gas | 1.77
320 K, 68.4 kPa, Gas | 2.64
320 K, 100.6 kPa, Gas | 3.89
320 K, 147.5 kPa, Gas | 5.74
320 K, 215.4 kPa, Gas | 8.49
320 K, 312.9 kPa, Gas | 12.57

Liquid
Conditions | mass density | vapor or sublimation pressure
290 K | 1119.31 kg/m3 | –
300 K | 1086.15 kg/m3 and 1086.47 kg/m3 and 1086.56 kg/m3 | 607.7 kPa and 607.3 kPa
305 K | – | 698.7 kPa
310 K | 1054.67 kg/m3 [middle of 4 runs] | 800.9 kPa and 800.7 kPa and 801.7 kPa
315 K | – | 914.3 kPa

Gas, Burnett expansion method
Conditions | mass density [kg/m3]
300 K, 124.2 kPa | 5.136
300 K, 170.5 kPa | 7.128
300 K, 183.4 kPa | 7.703
300 K, 251.4 kPa | 10.75
300 K, 268.7 kPa | 11.56
300 K, 364.7 kPa | 16.13
300 K, 388.1 kPa | 17.29
300 K, 519.4 kPa | 24.16
300 K, 550.3 kPa | 25.89
310 K, 128.7 kPa | 5.137
310 K, 177.1 kPa | 7.139
310 K, 190.3 kPa | 7.705
310 K, 261 kPa | 10.74
310 K, 279.4 kPa | 11.56
310 K, 380.4 kPa | 16.14
310 K, 405 kPa | 17.3
310 K, 545.9 kPa | 24.27
310 K, 578.6 kPa | 25.97
310 K, 759.9 kPa | 36.24
320 K, 133.1 kPa | 5.135
320 K, 183.4 kPa | 7.139
320 K, 197.1 kPa | 7.701
320 K, 270.9 kPa | 10.74
320 K, 289.9 kPa | 11.55
320 K, 395.7 kPa | 16.14
